The values below come from patent publication US9783521B2, “PDE10 inhibitors and related compositions and methods” (Omeros Corporation, priority 2008, dated 2017).

Experiment [1] concerns C57BL/6 male mice. Put plainly: PCP-induced hyperactivity (psychostimulant-induced model of psychosis). The class given is in vivo. The procedure: Psychostimulant-induced hyperactivity is measured by injecting animals with PCP and monitoring the animals' activity levels in the VersaMax chambers (Accuscan Instruments, Columbus, Ohio) measuring 40×40 cm. Locomotor activity is detected by photobeam breaks as the animal crosses each beam. The animal is placed in the center of the field and left undisturbed for a period of time (20 min to 2 hr) to measure its spontaneous activity in a novel environment. Measurements used to assess locomotor activity include: horizontal activity, total distance traveled, vertical activity (rearing events—animal raises up on hindlimbs), rotation, stereotypy, and distance traveled in the center compared to total distance traveled (center: total distance ratio). The NMDA antagonist PCP induces psychosis-like conditions manifested as hyperactivity and increased stereotypic behavior. Known antipsychotics are able to reverse psychostimulant-induced hyperactivity and increased stereotypy.
C57BL/6 male mice were injected with either compound (10 mg/kg) or vehicle via i.p. Ten minutes later, the mice were injected with PCP (5 mg/kg) via i.p. The mice were placed in the activity chambers 10 minutes after PCP injection and their locomotor activities were monitored by infrared beam breaks for 20 min.
C57BL/6 male mice were administered either compound or vehicle via oral gavage. Fifteen minutes later, the mice were injected with PCP (5 mg/kg) via the i.p. route. The mice were placed in activity chambers 10 minutes after PCP injection, and their locomotor activity in the horizontal dimension was monitored by infrared beam breaks for 20 min (5 consecutive 4-minute intervals (INT) as indicated).
C57BL/6 male mice were administered either compound or vehicle via oral gavage. Twenty-five minutes later, the mice were injected with PCP (5 mg/kg) via the i.p. route. The mice were placed in activity chambers 10 minutes after PCP injection and their locomotor activity in the horizontal dimension was monitored by infrared beam breaks for 20 min (5 consecutive 4-minute intervals (INT) as indicated).
C57BL/6 male mice were given either compound or vehicle by oral gavage. Twenty-five minutes later they were injected with PCP (5 mg/kg, i.p.). Ten minutes later, the mice were placed in activity chambers, and their locomotor activity in the horizontal dimension was monitored by infrared beam breaks for 20 min (5 consecutive 4-minute intervals (INT) as indicated).
C57BL/6 male mice were co-injected with PCP (5 mg/kg) and either compound or vehicle via the i.p. route. Ten minutes later, the mice were placed in activity chambers and their locomotor activity in the horizontal dimension was monitored by infrared beam breaks for 20 min (5 consecutive 4-minute intervals (INT) as indicated).
C57BL/6 male mice were administered either compound or vehicle via oral gavage. Twenty-five minutes later, the mice were injected with PCP (5 mg/kg) via the i.p. route. The mice were placed in the activity chambers 10 minutes after PCP injection and their locomotor activity in the horizontal dimension was monitored by infrared beam breaks for 20 min (5 consecutive 4-minute intervals (INT) as indicated).
C57BL/6 male mice were administered either compound or vehicle via oral gavage. Twenty-five minutes later, the mice were injected with PCP (5 mg/kg) via the i.p. route. The mice were placed in the activity chambers 10 minutes after injection and their locomotor activity in the horizontal dimension was monitored by infrared beam breaks for 20 min (5 consecutive 4-minute intervals as indicated).

Experiment [2] deals with T1, recombinant human PDE 10A1 (Homo sapiens, UniProt Q9Y233).
T1 construct: made in house; host or cells: Sf9 insect cells, baculoviral system
As to the kind of experiment: PDE10 biochemical assay (two-step Thompson and Appleman method or SPA). The following applies: PDE10 inhibition; read-out: IC50. As for the experimental part:
After the appropriate incubation time, the reaction is terminated by heating. The mixture is then subjected to treatment with snake venom phosphatase. […] IC50 values can be calculated by performing the experiment at several concentrations using standard graphical means. A detailed description of the actual technique used for IC50 assays as set forth in following Examples.
The phosphodiesterase (PDE) assay was performed using recombinant human PDE 1A3, 2A3, 3 catalytic region, 4 catalytic region, 5 catalytic region, 7A, 8A, 9A2, 10A1 and 11A1 enzymes expressed in a baculoviral system using Sf9 cells. PDE activity was measured using a modification of the two-step method of Thompson and Appleman described above which was adapted for 96 well plate format. […] Reactions were initiated with enzyme and incubated with (^3H)-substrate and substance for 20 minutes at 30° C. The reaction was terminated by denaturing the enzyme (heating the reaction to 70° C. for 2 minutes). The reaction was then cooled at 4° C. for 10 minutes before the addition of snake venom (Crotalus atrox, 0.2 mg/ml) for 10 minutes at 30° C., thus allowing non-specific hydrolysis of the tritiated substrate. Separation of the remaining unhydrolysed cyclic nucleotide was achieved by a batch binding of the mixture to activated Dowex (200 μl) anion exchange resin. The anion exchange resin bound the charged nucleotides, leaving only hydrolysed (^3H) substrate in the soluble fraction. The soluble fraction (50 μl) was then added to microscint-20 (200 μl) and counted on a Top Count Plate reader. Radioactivity units were plotted against inhibitor concentration and IC50 values obtained using Graph Pad Prism software.
Alternatively, phosphodiesterase activity was measured by scintillation proximity assay (SPA) with [^3H]-cGMP as substrate. Purified PDE10 was diluted and stored in 25 mM Tris-Cl (pH 8.0)/100 mM NaCl/0.05% Tween 20/50% glycerol/3 mM DTT. Assays contained (final concentrations): 50 mM Tris-Cl (pH 7.5)/8.3 mM MgCl2/1.7 mM EGTA/0.5 mg/ml BSA/5% DMSO and 2 ng PDE10 in a final volume of 0.1 mL. Inhibition was evaluated at 8 concentrations in duplicate. Reactions were initiated by addition of enzyme and were terminated after 20 minutes at 30° C. by the addition of 50 μl of SPA beads containing Zn^++. The mixture was shaken, allowed to settle for 3 hours, and counted in a Wallac plate counter. Results (net cpm) were fitted to a four parameter logistic model using Excel Solver®.

The subject of experiment [3] is C57BL/6 male mice. Put plainly: Conditioned avoidance response (CAR) model of psychosis. The class given is in vivo. The following applies: for number of avoidance responses (CAR) vs vehicle: 30 trials; for conditioned avoidance response (CAR) in trained mice as compared to vehicle control: mouse, in vivo.
Description: Conditioned avoidance response (CAR) is a behavioral test to evaluate antipsychotic effect of a test compound. […] Each chamber is fitted with metal grid floor that is capable of delivering electric shocks independently. A computer program is used to implement the testing paradigm as well as record the animal's movement between the two chambers through infrared beam sensors. The testing paradigm is as the follows. A mouse is placed into one chamber. A light (conditioned stimulus, CS) comes on. Five seconds later, mild electric shocks (0.4 mA) (unconditioned stimulus, US) are delivered to the chamber where the mouse is located (as detected by infrared beams) until the mouse escapes to the adjacent chamber or until 10 sec has elapsed. The US and CS always co-terminate. With randomized inter-trial intervals averaging 15 sec, 30 such CS-US pairing trials are given to each mouse each day. For each trial, an escape response is registered if the mouse crosses to the other chamber after being shocked (i.e., during the 10-sec US period), and an avoidance response is registered if the mouse crosses to the other chamber during the first 5-sec CS only period. The animals are trained in such paradigm for 15-20 days, during which the average percentage of avoidance responses will improve to 60-80%. […] These trained animals are then used for compound testing using the same paradigm.
The mice were then injected with either compound or vehicle via i.p., and 20 minutes later they were tested for 30 trials in the CAR paradigm. Vehicle treatment and compound treatment were given to the same animals on alternating days, and the effect of compound in reducing avoidance response was analyzed through within-subject comparison (paired t-test). […] The mice were then given either vehicle (15 minutes prior to testing) or compound (25 minutes prior to testing) via oral gavage, and were tested for 30 trials in the CAR paradigm. Vehicle treatment and compound treatment were given to the same animals on alternating days, and the effect of compound in reducing avoidance response was analyzed through within-subject comparison (paired t-test).
The mice were then given either vehicle (15 minutes prior to testing) or compound (25 minutes prior to testing) via oral gavage, and then were tested for 30 trials in the CAR paradigm. Vehicle treatment and compound treatment were given to the same animals on alternating days, and the effect of compound in reducing avoidance response was analyzed through within-subject comparison (paired t-test).
The mice were then given either vehicle (15 minutes prior to testing) or compound (25 minutes prior to testing) via oral gavage, and were then tested for 30 trials in the CAR paradigm. Vehicle treatment and compound treatment were given to the same animals on alternating days, and the effect of compound in reducing avoidance response was analyzed through within-subject comparison (paired t-test).
The mice were then given either vehicle (15 minutes prior to testing) or compound (25 minutes prior to testing) via oral gavage, and were tested for 30 trials in the CAR paradigm.
Experiment [4] relates to PDE10. The following applies: cited from earlier work.
The target in experiment [5] is PDE10. The following applies: cGMP binding to PDE10; read-out: dissociation constant (Kd); cited from earlier work.

Structures are written as SMILES.

T1 sequence (Q9Y233 1-779 isoform Q9Y233-1): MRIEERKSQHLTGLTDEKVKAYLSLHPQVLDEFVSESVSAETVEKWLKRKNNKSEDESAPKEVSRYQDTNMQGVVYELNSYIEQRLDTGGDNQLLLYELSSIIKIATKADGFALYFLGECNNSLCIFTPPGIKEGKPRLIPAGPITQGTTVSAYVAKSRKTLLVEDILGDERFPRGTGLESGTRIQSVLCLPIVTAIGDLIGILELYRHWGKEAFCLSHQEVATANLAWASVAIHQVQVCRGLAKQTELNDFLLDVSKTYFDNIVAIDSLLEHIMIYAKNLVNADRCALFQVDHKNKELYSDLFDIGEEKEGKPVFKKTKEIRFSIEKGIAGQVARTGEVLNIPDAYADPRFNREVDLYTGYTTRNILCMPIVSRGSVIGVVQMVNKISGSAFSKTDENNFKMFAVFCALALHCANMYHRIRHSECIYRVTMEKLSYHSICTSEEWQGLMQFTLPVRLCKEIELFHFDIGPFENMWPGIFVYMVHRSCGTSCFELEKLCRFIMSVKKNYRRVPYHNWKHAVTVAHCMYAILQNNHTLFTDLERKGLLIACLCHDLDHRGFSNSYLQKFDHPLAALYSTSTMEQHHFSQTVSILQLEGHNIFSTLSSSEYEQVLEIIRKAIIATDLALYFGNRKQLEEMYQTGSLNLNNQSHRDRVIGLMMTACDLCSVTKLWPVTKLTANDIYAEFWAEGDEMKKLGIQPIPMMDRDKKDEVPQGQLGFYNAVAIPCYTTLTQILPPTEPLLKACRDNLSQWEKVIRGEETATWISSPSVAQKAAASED

In the case of `CCOC(C(=O)N/N=C/c1cc(OC)c(Br)c(OC)c1)c1cccc2ncccc12` (centres unmarked) [Compound 12-60], the “PCP-induced hyperactivity compared to vehicle” value with C57BL/6 male mice [1] (10 mg/kg i.p., ten minutes before PCP 5 mg/kg i.p.) is “a similar result”. For the same compound, the “hyperactivity of mice in PCP-induced model of psychosis as compared to vehicle control” value (“hyperactivity … compared to vehicle control” for short) in the experiment with C57BL/6 male mice [1] (dose not stated) is “significantly reduces hyperactivity”. For the same compound, the IC50 in experiment [2] is not above 1000 nM.
For the compound `COc1cc(/C=N/NC(=O)C(OC)c2ccc(-n3cccn3)cc2)cc(OC)c1Br` (centres unmarked) [Compound 12-104], in the experiment with C57BL/6 male mice [1] (mouse, in vivo), the “PCP-induced hyperactivity compared to vehicle+PCP control” value was “reduces or abolishes the hyperactivity” and the “hyperactivity … compared to vehicle control” value is “significantly reduces hyperactivity”. Also, the “number of avoidance responses (CAR) vs vehicle” value (from here on “number … vs vehicle”) with C57BL/6 male mice [3] (10 mg/kg oral) is reported as “significantly reduces the number of avoidance response”. Moreover, the “number … vs vehicle” value in the experiment with C57BL/6 male mice [3] (30 mg/kg oral) is “significantly reduces the number of avoidance response”. Besides, in the experiment on C57BL/6 male mice [3], the “conditioned avoidance response (CAR) in trained mice as compared to vehicle control” value was “significantly reduces a conditioned avoidance response”.
On to `COc1cc(/C=N/NC(=O)C(OC)c2ccc(N3CCOCC3)cc2)cc(OC)c1Br` (centres unmarked) [Compound 12-114], for which, in the experiment on C57BL/6 male mice [1] (mouse, in vivo), the “PCP-induced hyperactivity compared to vehicle+PCP control” value is listed as “completely abolishes the hyperactivity” and the “hyperactivity … compared to vehicle control” value was “significantly reduces hyperactivity”. Also, the “number … vs vehicle” value with C57BL/6 male mice [3] (10 mg/kg oral) is listed as “significantly reduces the number of avoidance response”. Also, in the experiment with C57BL/6 male mice [3], the “conditioned avoidance response (CAR) in trained mice as compared to vehicle control” value is given as “significantly reduces a conditioned avoidance response”.
Consider `CCOC(C(=O)N/N=C/c1cc(OC)c(Cl)c(OC)c1)c1cccc2ncccc12` (centres unmarked) [Compound 12-119], for which the IC50 in experiment [2] was not above 1000 nM.
As to `CCOC(C(=O)N/N=C/c1cc(OC)cc(OC)c1)c1cccc2ncccc12` (centres unmarked) [Compound 12-120], in experiment [2], the IC50 is not above 1000 nM.
Still for that read-out and setting: the result for `COc1cc(/C=N/NC(=O)C(OC)c2cccc(N(C)C)c2)cc(Br)c1OC` (centres unmarked) [Compound 12-122] reads not above 1000 nM; that for `COc1cc(/C=N/NC(=O)C(OCCN(C)C)c2ccc3ccccc3c2)cc(OC)c1Br` (centres unmarked) [Compound 12-123], not above 1000 nM; that for `COc1cc(/C=N/NC(=O)C(OC)c2cccc(N(C)C)c2)cc(OC)c1O` (centres unmarked) [Compound 12-124], not above 1000 nM.
Same read-out and setting: the result for `COc1cc(/C=N/NC(=O)C(OC)c2ccc(N3CCCC3)cc2)cc(OC)c1Cl` (centres unmarked) [Compound 12-126] reads not above 1000 nM; that for `CCOC(C(=O)N/N=C/c1cc(OC)c(C)c(OC)c1)c1cccc2c1OCCO2` (centres unmarked) [Compound 12-128], not above 1000 nM.
On the same count and under the same terms, the result for `CCOC(C(=O)N/N=C/c1cc(Br)c(OC)c(OC)c1)c1cccc2c1OCCO2` (centres unmarked) [Compound 12-129] reads not above 1000 nM; that for `CCOC(C(=O)N/N=C/c1cc(OC)c(OC)c(OC)c1)c1cccc2c1OCCO2` (centres unmarked) [Compound 12-130], not above 1000 nM; that for `CCOC(C(=O)N/N=C/c1cc(OC)c(Br)c(OC)c1)c1cccc2c1OCCO2` (centres unmarked) [Compound 12-131], not above 1000 nM.
Take `CCOC(C(=O)N/N=C/c1cc(Br)c(OC)c(OC)c1)c1ccc2c(c1)OCCO2` (centres unmarked) [Compound 12-135]: the IC50 in experiment [2] was not above 1000 nM.
On the same count and under the same terms, then `COc1cc(/C=N/NC(=O)Cc2ccc(N3CCOCC3)cc2)cc(OC)c1Br` [Compound 12-139], with not above 1000 nM; and `COc1cc(/C(C)=N/NC(=O)C(OC)c2ccc(-n3cccn3)cc2)cc(OC)c1OC` (centres unmarked) [Compound 12-144], with not above 1000 nM; and `COc1ccc(/C=N/NC(=O)C(OC)c2ccc(-n3cccn3)cc2)cc1OC` (centres unmarked) [Compound 12-155], with not above 1000 nM.
As for `CC(C)Cn1c(=O)n(C)c(=O)c2[nH]cnc21` [IBMX, reference compound], in the experiment with PDE10 [4] (read-out: IC50 (50% inhibitory concentration), inhibition of PDE10), the IC50 is 2600 nM.
Consider `Nc1nc2c(ncn2[C@@H]2O[C@@H]3COP(=O)(O)O[C@H]3[C@H]2O)c(=O)[nH]1` [cGMP], for which the Kd at PDE10 [5] was more than 9000 nM. Further, the Km with PDE10 [4] (substrate hydrolysis by PDE10) is 3 µM.

What is called Kd is the free concentration of one partner at which half of the binding sites on the other are occupied at equilibrium, for simple one-to-one binding. Usually Km stands for the concentration of substrate that gives half-maximal velocity.
